In patent publication US20230320957A1, “COMPOSITION FOR ANTI-AGING OR SKIN REGENERATION COMPRISING ISOPROCURCUMENOL” (POSCO, priority 2020, published 2023):

Tests used:
Assay type in all cases: cell-based
HaCaT cells [1] = experiment: CCK-8 assay of growth and proliferation of keratinocytes; conditions: 24 hours, serum-free medium, p<0.05
Description: Cell counting kit-8 (CCK-8) is a water-soluble tetrazolium salt reagent called WST-8 and forms orange-colored water-soluble Formazan by dehydrogenase in the mitochondria of living cells.
Specifically, after culturing 1×10^4 HaCaT cells in a 96-well plate for 24 hours, the cells were changed to a serum-free medium to remove the growth factors contained in the medium, and treated with Isoprocurcumenol at the concentrations of 1 nM, 10 nM, 100 nM, 1 μM and 10 μM. […] After cultured for 24 hours, the cells were treated with CCK8, and the cell growth was analyzed by measuring absorbance at 450 nm.

HaCaT cells [2] = experiment: Wound healing assay; conditions: 1 μM
Description: The cell growth promoting effect of Isoprocurcumenol was confirmed through wound healing assay. Specifically, after fully culturing HaCaT cells in a 12-well plate, cells on a certain area were scraped off using a yellow tip to form a wound area, changed to a serum-free medium, and treated with 1 μM of Isoprocurcumenol.

EGFR = EGFR (Homo sapiens, UniProt P00533); experiment: EGFR activity measurement biosensor system (EGFP-SH2 fluorescence); conditions: 100 μM; cells cultured 24 hours in serum-free medium; compared to DMSO control
Chain of EGFR (P00533 25-1210, species assumed): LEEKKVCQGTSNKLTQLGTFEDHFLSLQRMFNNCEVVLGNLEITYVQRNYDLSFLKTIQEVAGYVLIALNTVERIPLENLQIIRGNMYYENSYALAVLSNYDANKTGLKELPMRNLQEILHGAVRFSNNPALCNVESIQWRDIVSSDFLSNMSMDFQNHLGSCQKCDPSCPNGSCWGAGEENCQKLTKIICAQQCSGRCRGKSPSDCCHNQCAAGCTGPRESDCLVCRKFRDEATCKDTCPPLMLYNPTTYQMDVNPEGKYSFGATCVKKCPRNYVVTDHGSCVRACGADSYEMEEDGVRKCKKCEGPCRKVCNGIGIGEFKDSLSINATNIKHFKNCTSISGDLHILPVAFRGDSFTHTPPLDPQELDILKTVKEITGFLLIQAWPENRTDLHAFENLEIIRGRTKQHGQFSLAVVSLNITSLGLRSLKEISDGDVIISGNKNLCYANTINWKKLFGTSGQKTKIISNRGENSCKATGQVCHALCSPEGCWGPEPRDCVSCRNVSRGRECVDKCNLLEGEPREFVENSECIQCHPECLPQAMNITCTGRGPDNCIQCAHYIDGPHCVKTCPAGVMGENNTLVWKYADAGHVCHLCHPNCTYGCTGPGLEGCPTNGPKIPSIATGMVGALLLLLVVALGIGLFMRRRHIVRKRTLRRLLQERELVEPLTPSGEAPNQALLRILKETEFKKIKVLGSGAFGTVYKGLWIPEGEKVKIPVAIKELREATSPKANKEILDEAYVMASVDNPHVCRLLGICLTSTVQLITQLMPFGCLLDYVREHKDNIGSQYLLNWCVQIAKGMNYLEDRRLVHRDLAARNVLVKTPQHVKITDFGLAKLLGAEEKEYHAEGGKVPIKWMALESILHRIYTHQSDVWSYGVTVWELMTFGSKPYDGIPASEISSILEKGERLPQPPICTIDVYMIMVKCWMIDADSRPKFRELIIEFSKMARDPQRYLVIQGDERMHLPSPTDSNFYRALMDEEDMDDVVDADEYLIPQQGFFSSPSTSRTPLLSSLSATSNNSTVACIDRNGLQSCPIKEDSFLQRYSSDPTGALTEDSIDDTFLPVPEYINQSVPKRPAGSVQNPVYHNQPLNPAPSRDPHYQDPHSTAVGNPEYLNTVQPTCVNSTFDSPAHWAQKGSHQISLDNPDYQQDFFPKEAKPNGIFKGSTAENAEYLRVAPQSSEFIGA
Description: In addition, by using the feature that, when the activities of the EGFR continue to be maintained, the EGFR is internalized into the cell, the cell of the biosensor system that may measure the activities of the EGFR was used in the present experimentation (see Korean Laid-open Patent Publication No. 2019-0014340).
After culturing the cells in a serum-free medium for 24 hours, the cells were treated with Isoprocurcumenol.

HaCaT cells [3] = experiment: MTT cytotoxicity assay in HaCaT keratinocytes
Description: The cytotoxicity of Isoprocurcumenol was measured using HaCaT cells as keratinocytes.
When cells are treated with MTT tetrazolium which is a yellow water-soluble substrate, such a substrate is reduced to MTT formazan by mitochondrial enzymes, and the color changes to blue-purple. That is, since the blue-violet color appears darker as the number of living cells increases, the blue-violet absorbance at a wavelength of 540 nm reflects the concentration of living cells.
Specifically, after culturing cells to fill each well of a 96-well plate, the cells were treated with Isoprocurcumenol at concentrations of 0, 10, 25, 50 and 100 μM, and cultured for 24 hours and 48 hours in a 5% CO2 incubator at 37° C. Thereafter, cell viability was measured using MTT reagent. A control group not treated with Isoprocurcumenol (0 μM) was treated with the same amount of the solvent DMSO.

ERK = ERK activation (phosphorylation) by Western blotting in HaCaT cells; conditions: 10 μM
Description: (§1) It is well known that the activities of extracellular signal-regulated kinase (ERK) and protein kinase B (AKT) transmit signals necessary for cell growth and survival by the activities of an EGFR. In addition, in Experimental Example 1, it was observed that Isoprocurcumenol generated signals due to activation of the EGFR in the cells of the biosense system for measuring the activities of the EGFR. Accordingly, it was measured whether the activities of the EGFR were induced by Isoprocurcumenol to the activities of the ERK and AKT.
(§2) Specifically, HaCaT cells were cultured in a serum-free medium, treated with 10 μM of Isoprocurcumenol for 10 minutes, 30 minutes and 60 minutes, respectively, and, thereafter, phosphorylated and activated ERK and AKT were analyzed by Western blotting. As antibodies, a phosphorylation antibody as a marker of activated ERK and AKT, and a general antibody for measuring all thereof were used, respectively.

c-myc = c-myc gene expression by real-time quantitative PCR in HaCaT cells; conditions: 10 μM, 1 hour, serum-free medium
Text: (§3) Signaling by an EGFR induces the expression of genes important for cell growth and survival through important signaling mediator proteins such as ERK and AKT. The egr1, c-myc, c-jun and c-fos genes are regulated by the EGFR and are well known as genes that promote cell growth and survival.
(§4) Specifically, Tri-reagent was used for mRNA extraction, cDNA was created by a reverse transcription polymerase chain reaction (RT-PCR) using a poly-A primer and a reverse transcriptase, and real-time quantitative PCR was used to measure the amount of each mRNA. The amount of each mRNA was corrected with the amount of β-actin, which is a constitutive gene.

c-fos = c-fos gene expression by real-time quantitative PCR in HaCaT cells; conditions: 10 μM, 1 hour, serum-free medium
Text: as §3, §4

c-jun = c-jun gene expression by real-time quantitative PCR in HaCaT cells; conditions: 10 μM, 1 hour, serum-free medium
Text: as §3, §4

AKT = AKT activation (phosphorylation) by Western blotting in HaCaT cells; conditions: 10 μM
Description: as §1, §2

egr1 = egr1 gene expression by real-time quantitative PCR in HaCaT cells; conditions: 10 μM, 1 hour, serum-free medium
Text: as §3, §4

HaCaT cells [4] = experiment: Resistance to UVB-induced cell damage (CCK-8 viability); conditions: 1 μM, UVB 500 mJ/cm2, serum-free medium, negative control about 40%
Description: Among the ultraviolet wavelengths, UVB wavelengths corresponding to 280 to 315 nm penetrate the epidermal layer where many keratinocytes exist to cause cell damage.
The solvent DMSO was used as a negative control group, and the cell viability was measured using the CCK-8 method used in Experimental Example 6.

C=C1CC(=O)C(=C(C)C)C[C@H]2[C@H]1CC[C@]2(C)O [Isoprocurcumenol]
growth and proliferation of cells vs negative control (HaCaT cells [1]; 10 nM): significantly increased | growth and proliferation of cells vs negative control (HaCaT cells [1]; 100 nM): significantly increased | growth and proliferation of cells vs negative control (HaCaT cells [1]; 1 μM): significantly increased | growth and proliferation of cells vs negative control (HaCaT cells [1]; 10 μM): significantly increased | filling of wound area vs negative control (HaCaT cells [2]; culture for 6 days, serum-free medium): more quickly filled | difference in wound area vs negative control (HaCaT cells [2]; from the 3rd day, t-test p<0.05): more significant difference | EGFR activation (fluorescence signal of biosensor cells) (EGFR): activated | cytotoxicity in keratinocytes (overall) (HaCaT cells [3]; 0-100 μM, 24 hours and 48 hours, MTT): very low | cytotoxicity (difference in cell viability) (HaCaT cells [3]; 100 μM, cultured 48 hours, MTT): 10% | cytotoxicity (HaCaT cells [3]; concentration of 10 μM or less): free of cytotoxicity | time to ERK activation (ERK): ≤ 30 min | induction of ERK activity (ERK; 10 minutes, serum-free medium): sufficiently induced | c-myc mRNA (corrected with β-actin) (c-myc): increased | c-fos mRNA (corrected with β-actin) (c-fos): increased | c-jun mRNA (corrected with β-actin) (c-jun): increased | time to AKT activation (AKT): ≤ 30 min | induction of AKT activity (AKT; 10 minutes, serum-free medium): sufficiently induced | egr1 mRNA (corrected with β-actin) (egr1): increased | cells survived after UVB (HaCaT cells [4]): about 60%
